From patent US20230226034A1, “PROPHYLACTIC OR THERAPEUTIC AGENT FOR PHOTODERMATOSIS” (MITSUBISHI TANABE PHARMA CORPORATION, priority 2020, published 2023)
Marks after values point to notes of the source that are not given here.

Key:
type I collagen = test: UV-A irradiated mouse photoaging model: type I collagen content in the skin; type: in vivo; conditions: 3 mg/kg once daily for 8 weeks (compound B oral, HP-228 intraperitoneal); FIG. 4
Excerpt: (§1) Male albino hairless mice (strain name: Hos:HR-1, Hoshino Laboratory Animals Inc.) were used. The mice were divided into groups so that the body weight of each group was homogenous, and from the next day, the dorsal skin of the mice was irradiated with an incremental amount of ultraviolet A at the frequency of five times a week for 8 weeks to induce photoaging in the groups other than the untreated group. The UV-A irradiation schedule was based on the report by Minami et al. (J Nutrition Biochem 2009, 20, 389).
(§2) Compound B: The required amount was weighed as free-form equivalent, and suspended in 0.5% MC to achieve the target concentration, and orally administered at a volume of 0.1 mL/10 g (body weight) at 3 mg/kg once daily for 8 weeks.
(§3) HP-228 (reference control, melanocortin receptor-activating peptide): The required amount of free-form was weighed and dissolved in PBS to achieve the target concentration. 0.1 mL/10 g (body weight) was injected intraperitoneally at 3 mg/kg once daily for 8 weeks.
Quantification of type I collagen content in the skin (evaluation item b): Mice were euthanized 8 weeks after UV-A irradiation, and their back skin was collected. Homogenates were prepared by adding acetic acid and pepsin to the collected skin. The amount of collagen in the skin homogenate, which was reduced by UV-A, was measured using the Mouse Collagen Type I ELISA Kit. […]

[1] = test system: Male albino hairless mice (Hos:HR-1); test: UV-A irradiated mouse photoaging model: skin wrinkles by visual observation; type: in vivo; conditions: 3 mg/kg once daily for 8 weeks (compound B oral, HP-228 intraperitoneal); score 0 to 3; FIG. 3
Excerpt: as §1, §2, §3
Evaluation of skin wrinkles by visual observation (evaluation item a): The state of skin wrinkles was evaluated on a four-step scale from score 0 (fine wrinkles) to 3 (deep and coarse wrinkles) at a frequency of once a week for 8 weeks after UV-A irradiation.
The skin wrinkle score was tested by Mann-Whitney's U test adjusted for multiplicity, and the significance level was set at 0.05. […]

[2] = test system: cyclobutane pyrimidine dimer (CPD); test: UV-A irradiated mouse photoaging model: skin histology, CPD immunostaining; type: in vivo
Excerpt: as §1, §2, §3
Skin histological examination (endpoint c): Skin samples were fixed in 10% neutral buffered formalin and paraffin sections were prepared. DNA damage induced by UV-A was detected by enzyme-antibody immunostaining using anti-cyclobutane pyrimidine dimer (CPD) antibody (Cosmo Bio).

skin of healthy subjects = conditions: FIG. 2
[3] = test system: Mouse melanoma derived cell line B16F1 cells; test: Melanin production assay in mouse melanoma cell line
Protocol: The following procedure was used to evaluate the effect of a MC1R agonist on melanin production from mouse melanoma cell lines.
Mouse melanoma derived cell line B16F1 cells were used in measurement of melanin production. B16F1 cells were cultured by using Dulbecco's Modified Eagle Medium (DMEM) containing 10% fetal bovine serum (FBS) and 100 U/mL Penicillin-Streptomycin.
One experiment was performed in triplicate, and three independent experiments were performed.
In consideration of the correspondence of each experiment, the difference in % value from a negative control was determined by performing a two-way Dunnett's test based on each group and the number of experiments as factors. The significance level here was 5% on both sides. Such analysis was performed with SAS.

[4] = test system: Male C57BL/6JHamSlc-Ay/+ mice; test: Effect on darkening of mouse body hair; type: in vivo; conditions: day 6
Protocol: Male C57BL/6JHamSlc-Ay/+ mice (Japan SLC, Inc.) were used. The test was performed with 29- or 30-days old mice, in order to use each individual whose hair cycle was at the anagen stage. The hair on the back of each of the mice was shaved with a clipper before the starting of administration, and any individual with no bad conditions such as nicks and maculae on the skin was selected, and subjected to grouping based on a group configuration shown in Table 3 by performing a simulation method so that the body weights in respective groups were uniform. Administration (also including preparation) of the test substance and evaluation of body hair were performed separately by respective different experimenters, and such evaluation was performed in a blinded manner. The starting date of administration was set to day 0, and the test substance was administered once daily for 6 days (day 0 to day 5).
The compound was orally administered at a volume of 0.1 mL/10 g (body weight).
NDP-αMSH (control drug): a required amount of compound was weighed as free-form equivalent, and dissolved in Dulbecco's phosphate-buffered saline (PBS) at a concentration of 0.4 mg/mL. The drug was subcutaneously administered at a volume of 0.05 mL/10 g (body weight).
Evaluation and sampling were performed on day 6. The mice were euthanized by cervical dislocation, thereafter subjected to hair shaving of each back with a clipper, and each individual was rated as positive (+) or negative (−) by the degree of darkening of body hair.
A statistical analysis was performed by SAS, and the significance level was 0.05. A 0.5% MC administration group and an NDP-αMSH group were analyzed by Fisher's exact probability test. […] The fixed-order test was performed by Fisher's exact probability test from a higher dose, and, if significant, performing analysis at a lower dose.

[5] = test system: tyrosinase-related protein 1 (TYRP1); test: Expression of melanin-related gene TYRP1 in skin, clinical trial in healthy subjects; type: in vivo, human; conditions: back skin mRNA, next day versus day before administration
[6] = test system: premelanosome protein (PMEL); test: Expression of melanin-related gene PMEL in skin, clinical trial in healthy subjects; type: in vivo, human; conditions: back skin mRNA, next day versus day before administration
[7] = grade + (Slight), dorsal skin, UVA irradiated, 10 animals, 3 mg/kg for 8 weeks
[8] = grade ± (Minimal), dorsal skin, UVA irradiated, 10 animals, 3 mg/kg for 8 weeks
[9] = 0.003 mg/kg p.o. once daily for 6 days
[10] = 0.03 mg/kg p.o. once daily for 6 days
[11] = 0.3 mg/kg p.o. once daily for 6 days
[12] = 3 mg/kg p.o. once daily for 6 days

CCO[C@H]1CC[C@H](N2C[C@@H](c3ccc(OC)cc3)[C@](OC)(C(=O)N3C[C@H](c4ccc(C(F)(F)F)cc4N4CCC(C(=O)O)CC4)C[C@H]3COC)C2)CC1.Cl.Cl (relative stereo) [Compound B, 1-{2-[(3S,5S)-1-[(3R,4R)-1-(trans-4-ethoxycyclohexyl)-3-methoxy-4-(4-methoxyphenyl)pyrrolidin-3-yl]carbonyl}-5-(methoxymethyl)pyrrolidin-3-yl]-5-(trifluoromethyl)phenyl piperidine-4-carboxylic acid, 2 hydrochloride]
amount of type I collagen in the skin (type I collagen): significantly higher than that of the vehicle control group | skin wrinkle scores [1]: lower or tended to be lower than those of the vehicle control group | Epidermal CPD staining ([2]; 3 mg/kg once daily for 8 weeks (compound B oral, HP-228 intraperitoneal)): tended to be less positive than in the vehicle control group | Number of animals, CPDs immunostaining, Cells in dermis, grading + [2, 7]: 10 | Number of animals, CPDs immunostaining, Epidermis (cell nuclei), grading + [2, 7]: 1 | Number of animals, CPDs immunostaining, Hair follicles in dermis (cell nuclei), grading + [2, 7]: 1 | Number of animals, CPDs immunostaining, Sebaceous glands (cell nuclei), grading + [2, 7]: 9 | Number of animals, CPDs immunostaining, Epidermis (cell nuclei), grading ++ ([2]; grade ++ (Moderate), dorsal skin, UVA irradiated, 10 animals, 3 mg/kg for 8 weeks): 6 | Number of animals, CPDs immunostaining, Epidermis (cell nuclei), grading +++ ([2]; grade +++ (Severe), dorsal skin, UVA irradiated, 10 animals, 3 mg/kg for 8 weeks): 3 | Number of animals, CPDs immunostaining, Hair follicles in dermis (cell nuclei), grading ± [2, 8]: 9 | Number of animals, CPDs immunostaining, Other tissues (incl. cytoplasm in sebaceous glands), grading ± [2, 8]: 10 | Number of animals, CPDs immunostaining, Sebaceous glands (cell nuclei), grading ± [2, 8]: 1

COC[C@H]1CN(C(=O)[C@]2(F)CN(C3CCCC3)C[C@H]2c2ccc(OC)cc2)C[C@@H]1c1ccc(C(F)(F)F)cc1N1CCC(C(=O)O)CC1 [Compound A, Cocrystal of 1-{2-[(3S,4R)-1-{[(3R,4R)-1-cyclopentyl-3-fluoro-4-(4-methoxyphenyl)pyrrolidin-3-yl]carbonyl}-4-(methoxymethyl)pyrrolidin-3-yl]-5-(trifluoromethyl)phenyl}piperidine-4-carboxylic acid with phosphoric acid]
increase in melanin density of the skin (skin of healthy subjects; 450 mg orally once daily for 14 days, subjects Fitzpatrick Type V): no increase in melanin density | increase in melanin density of the skin: time of maximum (skin of healthy subjects; 150 and 300 mg orally once daily for 14 days): maximum on day 15 | melanin production ([3]; B16F1 cells, 3 days, FIG. 1): induced melanin production in a concentration-dependent manner | EC50 ([3]; Mus musculus, B16-F1, 72 h, read-out: EC50 value, melanin production): 0.013 nM | Number of mice Negative (darkening of body hair) [4, 9]: 7 | Number of mice Positive (darkening of body hair) [4, 9]: 0 | Number of mice Negative (darkening of body hair) [4, 10]: 7 | Number of mice Positive (darkening of body hair) [4, 10]: 0 | Number of mice Negative (darkening of body hair) [4, 11]: 0 | Number of mice Positive (darkening of body hair) [4, 11]: 7** | Number of mice Negative (darkening of body hair) [4, 12]: 0 | Number of mice Positive (darkening of body hair) [4, 12]: 7** | TYRP1 Rate of changes (times) ([5]; 30 mg single oral dose): 1.3 times | TYRP1 Rate of changes (times) ([5]; 100 mg single oral dose): 1.37 times | TYRP1 Rate of changes (times) ([5]; 300 mg single oral dose): 2.14 times | TYRP1 Rate of changes (times) ([5]; 600 mg single oral dose): 2.65 times | PMEL Rate of changes (times) ([6]; 30 mg single oral dose): 1.22 times | PMEL Rate of changes (times) ([6]; 100 mg single oral dose): 1.77 times | PMEL Rate of changes (times) ([6]; 300 mg single oral dose): 2.49 times | PMEL Rate of changes (times) ([6]; 600 mg single oral dose): 3.54 times
